# Where “and” joins values, the source holds several entries; their conditions need not be identical. Equal values may be shown once.
# Columns and labels:
# [1] = cited from earlier work
# [2] = Biodistribution of DRV administered via intravenous; type: in vivo; conditions: Balb/c mice; for DRV accumulation cumulatively in the brain / DRV uptake cumulative in liver / DRV uptake cumulative in plasma / DRV accumulation cumulatively for all time points in plasma / DRV accumulation cumulatively for all time points in the brain / DRV concentration in liver (cumulative): cumulative 1, 3, 6, 12 h, mean ± S.E.M.; for concentration at 1 h: both, Balb/c, mouse, brain, other: intranasal (IN), DRV concentration in brain (Mean)
Compound,"Brain to plasma ratio, IN compared to IV administration [1]","Increase of DRV accumulation in the brain, IN compared to IV delivery ([2]; 2.5 mg/kg, 1 h, p ≤ 0.05)","Increase of DRV accumulation in the brain, IN compared to IV delivery ([2]; 2.5 mg/kg, 3 h, p ≤ 0.05)","DRV accumulation cumulatively in the brain ([2]; 2.5 mg/kg, IN)","DRV uptake cumulative in liver ([2]; 2.5 mg/kg, IN)","DRV uptake cumulative in plasma ([2]; 2.5 mg/kg, IN)","DRV accumulation cumulatively in the brain ([2]; 2.5 mg/kg, IV)","DRV uptake cumulative in liver ([2]; 2.5 mg/kg, IV)","DRV uptake cumulative in plasma ([2]; 2.5 mg/kg, IV)","Lung DRV concentration, IN compared to IV ([2]; 2.5 mg/kg, individual or cumulative time points)","Increase of DRV accumulation in the brain, IN compared to IV delivery ([2]; 25 mg/kg, 1 h, p ≤ 0.001)","DRV accumulation cumulatively for all time points in plasma ([2]; 25 mg/kg, IN)","DRV accumulation cumulatively for all time points in the brain ([2]; 25 mg/kg, IN)","DRV concentration in liver (cumulative) ([2]; 25 mg/kg, IN)","DRV accumulation cumulatively for all time points in plasma ([2]; 25 mg/kg, IV)","DRV accumulation cumulatively for all time points in the brain ([2]; 25 mg/kg, IV)","DRV concentration in liver (cumulative) ([2]; 25 mg/kg, IV)","concentration at 1 h ([2]; 2.5 mg/kg, 2.5 mg/kg, IN, 1 h)","concentration at 1 h ([2]; 25 mg/kg, 25 mg/kg, IN, 1 h)"
CN(C)CCCN=C(N)c1ccc(C(N)=NCCCN(C)C)cc1 [DB213],significantly high tissue distribution in the brain to plasma ratio,–,–,–,–,–,–,–,–,–,–,–,–,–,–,–,–,–,–
"CC(C)CN(C[C@@H](O)[C@H](Cc1ccccc1)NC(=O)O[C@H]1CO[C@H]2OCC[C@H]21)S(=O)(=O)c1ccc(N)cc1 [DRV, Darunavir]",–,~3 fold,~2 fold,12.08 ± 2.91 ng/g and ~12 ng/g,29.27 ± 4.17 ng/g,19.91 ± 12.65 ng/g,6.91 ± 1.69 ng/g,118.39 ± 28.13 ng/g,81.37 ± 22.04 ng/g,did not significantly increase,~2 fold,320.56 ± 40.04 ng/g,19.74 ± 1.80 ng/g and ~20 ng/g,833.83 ± 242.4 ng/g,899.12 ± 136.93 ng/g,12.84 ± 2.88 ng/g,1085.18 ± 255.0 ng/g,~5 ng/g,~12 ng/g
